Here are results for five compounds from patent publication US20030078212A1, “PHARMACEUTICAL COMPOSITIONS CONTAINING POLY(ADP-RIBOSE) GLYCOHYDROLASE INHIBITORS AND METHODS OF USING THE SAME” (priority 1998, published 2003).

In series [1] the test system is cell viability, glucose metabolism, and DNA synthesis. The note with it: cited from earlier work.
For series [2], the system named is human fibroblast cells lines (W138 or BJ cells). Briefly: Extending proliferative capacity and lifespan of cells. In kind it is cell-based. The protocol:
At the time of subdivision, the media is aspirated, and the cells rinsed with phosphate buffer saline (PBS) and then trypsinized. The cells are counted with a Coulter counter and plated at a density of 10^5 cells per cm^2 in 6-well tissue culture plates in DMEM/199 medium supplemented with 10% bovine calf serum and varying amounts (0.10 μM, and 1 mM: from a 100×stock solution in DMEM/M199 medium) of a PARG inhibitor. This process is repeated every 7 days until the cell appear to stop dividing. The untreated (control) cells reach senescence and stop dividing after about 40 days in culture. […] The cells treated with 1 mM 3-AB will still divide after 60 days in culture.

In another series the test system is Colitis. The note with it: rats; colitis by trinitrobenzene sulfonic acid in 50% ethanol; cited from earlier work.
The subject of series [3] is ischemia and reperfusion of the heart. The note with it: rabbits, cited from earlier work.
A further series concerns endotoxic shock. The note with it: cited from earlier work.

Some results are limits rather than exact numbers.

Take `NC(=O)c1ccccc1` [benzamide]: the “additional metabolic effects (side effects)” value in series [1] was “affect cell viability, glucose metabolism, and DNA synthesis”.

`COc1cc(C(=O)OC[C@H]2OC(OC(=O)c3cc(OC)c(OC)c(OC)c3)[C@H](OC(=O)c3cc(OC)c(OC)c(OC)c3)[C@@H](OC(=O)c3cc(OC)c(OC)c(OC)c3)[C@@H]2OC(=O)c2cc(OC)c(OC)c(OC)c2)cc(OC)c1OC` (stereo partly drawn) [Example 4, 1,2,3,4,6-Penta-O-(3,4,5-Trimethoxybenzoyl)-D-Glucopyranose] came in with a melting point of 85 to 90 °C.

`NC(=O)c1cccc(N)c1` [3-aminobenzamide]: the “additional metabolic effects (side effects)” value in series [1] is “affect cell viability, glucose metabolism, and DNA synthesis”. The “effect on lifespan of the cells” value is reported as “little or no effect” in series [2] (10 μM) and “lengthen the lifespan of the cells” in series [2] (100 μM). In series [2] (1 mM), the “effect on lifespan and proliferative capacity of the cells” value was “dramatically increases the lifespan and proliferative capacity of the cells”. Also, the “time in culture at which cells still divide” value in series [2] (1 mM, untreated cells stop dividing after about 40 days) is above 60 days. Also, the “inflammatory response, morphology and energetic status of the distal colon” value with Colitis is “reduced the inflammatory response and restored the morphology and the energetic status of the distal colon”. Further, the “reduction in infarct size in the heart” value in series [3] (single injection 10 mg/kg, one minute before occlusion or one minute before reperfusion) is reported as 32-42%.

For the compound `Oc1cccc2c(O)nccc12` [1,5-dihydroxyisoquinoline], the “reduction in infarct size” value in series [3] (1 mg/kg) is on record as 38-48%.

Take `NC(=O)c1cccnc1` [nicotinamide]: the “delayed, NO-mediated vascular failure” value in the series on endotoxic shock is “protects against delayed, NO-mediated vascular failure in endotoxic shock”.
